# According to paper PMC4742234, “Screening of Drug Metabolizing Enzymes for the Ginsenoside Compound K In Vitro: An Efficient Anti-Cancer Substance Originating from Panax Ginseng” (PLoS ONE, 2016):
# “Also recorded” adds a separate entry of the source.
# Assays:
# CYP1A2 = biological target: T1, CYP1A2 (Homo sapiens, UniProt P05177); test: Inhibition of CYP1A2 (phenacetin O-deethylation) by CK in HLMs; type: in vitro ADME
# T1 construct: tissue Cypex Ltd. (U.K.); host or cells: pooled human liver microsomes
# T1 sequence (P05177 1-516): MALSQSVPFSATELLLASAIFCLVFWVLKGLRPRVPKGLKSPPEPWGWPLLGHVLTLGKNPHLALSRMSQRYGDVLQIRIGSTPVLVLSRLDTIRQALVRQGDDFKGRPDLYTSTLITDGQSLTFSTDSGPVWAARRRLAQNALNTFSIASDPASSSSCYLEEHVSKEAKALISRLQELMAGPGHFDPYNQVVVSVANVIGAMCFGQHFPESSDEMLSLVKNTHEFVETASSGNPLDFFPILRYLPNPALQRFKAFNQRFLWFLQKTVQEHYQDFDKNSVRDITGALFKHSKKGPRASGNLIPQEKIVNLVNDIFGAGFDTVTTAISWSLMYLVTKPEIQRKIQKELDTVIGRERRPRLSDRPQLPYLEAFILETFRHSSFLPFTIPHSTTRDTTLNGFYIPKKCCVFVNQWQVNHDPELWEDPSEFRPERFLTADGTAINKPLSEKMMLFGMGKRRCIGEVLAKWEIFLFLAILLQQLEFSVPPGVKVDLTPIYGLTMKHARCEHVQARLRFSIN
# Procedure: The method was conducted according to our previous study with some modifications. The CYP isoform-specific probe reactions used were phenacetin O-deethylation (for CYP1A2), coumarin 7-hydroxylation (for CYP2A6), tolbutamide 4-hydroxylation (for CYP2C9), metoprolol α-hydroxylation (for CYP2D6), chlorzoxazone 6-hydroxylation (for CYP2E1),S-Mephenytoin 4-hydroxylation (for CYP2C19), and midazolam 1-hydroxylation (for CYP3A4). The kinetic study of CK was conducted with HLMs. A 0.2 mL incubation mixture that consisted of CK (as a substrate), the HLMs (0.5 mg/mL) or CYP isoforms (10 pmol), and 0.1 M sodium phosphate buffer (pH 7.4) was pre-warmed for 5 min at 37°C. The reaction was initiated by the addition of 1 mg/mL triphosphopyridine nucleotide (NADPH). All the reagents were dissolved in methanol, and the final solvent concentration in all incubations (including the controls) was 1%. The final incubations were performed in a shaking water bath (37°C) for 30 min. The reactions were stopped by adding 0.2 mL ice-cold acetonitrile, which contains irbesartan (114.9 ng/mL) as the internal standard. The samples were vortexed for 5 min. After centrifugation (12000×g for 10 min), the supernatants were transferred, and aliquots of 20 μL were injected into the HPLC-MS/MS system for analysis.
# CK (10–100 μM) and a single CYP isoform-specific substrate (with a concentration similar to its corresponding Kmvalue) were used to determine the inhibitory effect of CK on specific CYP isoforms as described in detail previously. Substrates including phenacetin, coumarin, tolbutamide, metoprolol, chlorzoxazone, S-Mephenytoin, and midazolam were used at concentrations of 10, 5, 100, 7.5, 40, 100, and 5 μM, respectively. All incubation conditions were the same as mentioned above. The inhibitory effects on the CYP isoforms were investigated individually by incubating the HLMs in the absence or presence of CK. […]
# CYP3A4 = CYP3A4 (Homo sapiens, UniProt P08684); test: Metabolic clearance rate of CK with recombinant CYP3A4 under ketoconazole; type: in vitro ADME; set-up: purchased Cypex Ltd. (U.K.); conditions: recombinant CYP3A4, CK 50 μM, ketoconazole 1 μM
# Sequence of CYP3A4 (P08684 whole entry, canonical isoform): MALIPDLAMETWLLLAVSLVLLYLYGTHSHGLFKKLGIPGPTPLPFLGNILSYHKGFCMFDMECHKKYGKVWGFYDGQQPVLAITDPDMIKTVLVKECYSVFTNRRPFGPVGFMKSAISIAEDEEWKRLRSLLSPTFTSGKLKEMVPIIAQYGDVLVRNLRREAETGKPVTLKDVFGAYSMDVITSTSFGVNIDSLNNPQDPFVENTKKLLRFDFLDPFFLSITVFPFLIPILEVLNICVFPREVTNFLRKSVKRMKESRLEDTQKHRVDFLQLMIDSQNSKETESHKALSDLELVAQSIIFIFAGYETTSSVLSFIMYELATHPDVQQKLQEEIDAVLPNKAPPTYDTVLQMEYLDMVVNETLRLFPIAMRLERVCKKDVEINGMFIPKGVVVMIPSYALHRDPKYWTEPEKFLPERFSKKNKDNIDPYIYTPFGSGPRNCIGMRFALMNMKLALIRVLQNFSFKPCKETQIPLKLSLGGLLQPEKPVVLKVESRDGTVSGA
# Procedure: The method was conducted according to our previous study with some modifications. The CYP isoform-specific probe reactions used were phenacetin O-deethylation (for CYP1A2), coumarin 7-hydroxylation (for CYP2A6), tolbutamide 4-hydroxylation (for CYP2C9), metoprolol α-hydroxylation (for CYP2D6), chlorzoxazone 6-hydroxylation (for CYP2E1),S-Mephenytoin 4-hydroxylation (for CYP2C19), and midazolam 1-hydroxylation (for CYP3A4). The kinetic study of CK was conducted with HLMs. A 0.2 mL incubation mixture that consisted of CK (as a substrate), the HLMs (0.5 mg/mL) or CYP isoforms (10 pmol), and 0.1 M sodium phosphate buffer (pH 7.4) was pre-warmed for 5 min at 37°C. The reaction was initiated by the addition of 1 mg/mL triphosphopyridine nucleotide (NADPH). […]
# To screen the specific CYP isoform responsible for the CK metabolism, we determined the inhibitory effect of specific inhibitors on the metabolism of CK in the HLMs as described in detail previously. […] The inhibitory effects of the above specific inhibitors on the metabolic clearance rate of CK were evaluated separately to screen the CYP isoforms responsible for the CK metabolism. The relative activity of the CYP isoforms was calculated by dividing the peak area of CK when incubated with the inhibitor by that of CK from the negative controls. […]
structure (smiles),measurement,setting,value
"CC(C)=CCC[C@](C)(OC1O[C@H](CO)[C@@H](O)[C@H](O)[C@H]1O)[C@H]1CC[C@]2(C)[C@@H]1[C@H](O)C[C@@H]1[C@@]3(C)CC[C@H](O)C(C)(C)[C@@H]3CC[C@]12C (stereo partly drawn) [CK, 20-O-β-(D-glucopyranosyl)-20(S)-protopanaxadiol]",inhibitory effect on the activity of CYP1A2,"CYP1A2; HLMs, CK 10–100 μM",minimal; also recorded: negligible
same,IC50,"CYP1A2; HLMs, phenacetin 10 μM, CK 10–100 μM",> 100 µM
same,inhibitor potency class for CYP1A2,CYP1A2; classified by IC50 according to Kong et al,"weak (weak, if IC50≥100 μg/mL or ≥50 μM)"
same,"MCR of CK, of that of the control",CYP3A4,13.2%
